According to PMC9731865, “Gambogic acid and juglone inhibit RNase P through distinct mechanisms” (The Journal of Biological Chemistry, 2022):

Molecular target: T1, A. thaliana PRORP1 (Arabidopsis thaliana, UniProt Q66GI4)
T1 construct: made in house
T1 sequence (Q66GI4 77-572): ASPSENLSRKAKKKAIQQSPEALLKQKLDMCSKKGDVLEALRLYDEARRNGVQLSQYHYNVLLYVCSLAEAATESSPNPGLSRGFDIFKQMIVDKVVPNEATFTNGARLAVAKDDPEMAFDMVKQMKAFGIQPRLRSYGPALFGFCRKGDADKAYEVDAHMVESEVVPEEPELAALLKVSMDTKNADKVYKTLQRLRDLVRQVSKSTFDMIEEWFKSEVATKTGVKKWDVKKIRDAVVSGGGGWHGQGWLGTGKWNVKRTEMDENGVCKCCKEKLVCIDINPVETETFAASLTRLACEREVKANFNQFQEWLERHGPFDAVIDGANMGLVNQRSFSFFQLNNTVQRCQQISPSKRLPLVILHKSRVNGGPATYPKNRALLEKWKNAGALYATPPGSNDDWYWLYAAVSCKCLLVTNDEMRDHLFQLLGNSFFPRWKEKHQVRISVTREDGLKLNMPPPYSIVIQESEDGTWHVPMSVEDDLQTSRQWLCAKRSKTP
Experiment: FP cleavage assay, PRORP1 dose response
Assay type: biochemical
Conditions: for activity at 6.25 µM: 6.25 μM of inhibitor, FP cleavage assay, read-out: PRORP1 Activity (%); for IC50: 30 min preincubation, 0.3 nM PRORP1, 800 nM pre-tRNA, 25 °C, apparent IC50 for juglone
Experimental: Compounds gambogic acid (A) and juglone (B) were incubated with enzyme at double the reaction concentration for 30 min prior to the addition of an equal volume of substrate to initiate the reaction. PRORP1 reactions (shown in green) were performed with 0.3 nM PRORP1 and 800 nM pre-tRNA containing 40 nM Fl-pre-tRNA at 25 °C in 30 mM MOPS pH 7.8, 5 mM MgCl2, 100 mM NaCl, 1 mM TCEP, 500 nM (12 μg/ml) yeast tRNA, 5 mM spermidine, 6.65 μg/ml BSA, and 0.01% NP-40. MRPP1/2/3 reactions (shown in red) were performed using 50 nM MRPP3, 500 nM MRPP1/2, 500 nM pre-tRNA containing 40 nM Fl-pre-tRNA at 37 °C in 50 mM MOPS (pH 7.8), 1 mM TCEP, 4.5 mM MgCl2, and 100 mM NaCl. B. subtilis RNase P reactions (shown in blue) were performed using 20 nM RNase P and 500 nM pre-tRNA containing 40 nM Fl-pre-tRNA at 37 °C in 50 mM Tris, pH 7.2, 5 mM MgCl2, 100 mM KCl, 500 nM (12 μg/ml) yeast tRNA, 20 mM dithiothreitol (DTT), 10 mM spermidine, and 0.01% NP-40. Equation 1 was fit to each dataset.
The activity of PRORP1 catalyzed pre-tRNA cleavage was measured by monitoring the fluorescence anisotropy (FA) signal (λex = 485 nm and λem = 535 nm) over time at 25 °C in buffer conditions optimized for a high-throughput format, 30 mM MOPS pH 7.8, 5 mM MgCl2, 100 mM NaCl, 1 mM TCEP, 500 nM (12 μg/ml) yeast tRNA, 5 mM spermidine, 6.65 μg/ml BSA, and 0.01% NP-40. Yeast tRNA^mix (Roche) was used to reduce the number of compounds that inhibit PRORP1 activity by targeting tRNA. Prior to each reaction, pre-tRNA was heated for 3 min at 95 °C to unfold the RNA and refolded in the reaction buffer at room temperature (25 °C) for 30 min. Reactions were performed in black, 96-well plates (Corning Incorporation, #3686) using a TECAN plate-reader (Infinite F500, G-factor = 1.05) at 25 °C, and the FA values recorded. Reactions were initiated with the addition of substrate to enzyme. Experiments were done in the presence of excess substrate. The concentration of enzyme was 0.3 to 5 nM, the concentration of labeled substrate (Fl-pre-tRNA) was 40 nM, and the concentration of pre-tRNA was 120 to 4000 nM. The concentration of Fl-pre-tRNA was held constant in all reactions.
The dose response was measured using the FP assay as described above with varying concentrations of compound. Compounds were incubated with PRORP1 at twice the reaction concentration for 30 min prior to the addition of equal volumes of substrate to initiate the reaction. Experiments were done under multiple turnover conditions (same buffer conditions as the FP assay). […] PRORP1 activity was determined as a function of inhibitor concentration, and Equation 1 was fit to the data to determine the IC50 value. The standard error of the mean (SEM) is reported from the fit.(1) Activity(%)=100/1+([I]/IC50)^n

CC(C)=CCC[C@]1(C)C=Cc2c(O)c3c(c(CC=C(C)C)c2O1)O[C@]12C(=C[C@@H]4C[C@H]1C(C)(C)O[C@@]2(C/C=C(/C)C(=O)O)C4=O)C3=O [gambogic acid]
activity at 6.25 µM: 29.1% | IC50: 1.01 ± 0.04 µM

O=C1C=CC(=O)c2c(O)cccc21 [juglone, 5-hydroxy-1,4-naphthalenedione]
activity at 6.25 µM: 20.2% | IC50: 2.1 ± 0.04 µM
